# In patent publication US20210387952A1, “SOLID STATE FORMS OF D[…] PROCESS FOR PREPARATION THEREOF” (TEVA PHARMACEUTICALS INTERNATIONAL GMBH, priority 2018, published 2021):
# Assay: Solid state (polymorphic and chemical) stability on storage
smiles,measurement,setting,value
"O=C(O)CNC(=O)c1c(O)n(C2CCCCC2)c(=O)n(C2CCCCC2)c1=O [Form 3, 2-[(1,3-dicyclohexyl-2,4,6-trioxo-1,3-diazinane-5-carbonyl)amino]acetic acid]",polymorphic and chemical stability,crystalline solid form,polymorphically and chemically stable
same,storage time over which the form is stable,stored in closed bottles,at least 2 weeks
